Patent publication US10821152B2, “Methods, agents and compositions for treatment of inflammatory conditions” (Betanien Hospital, priority 2014, dated 2020)
Non-standard residues stand in square brackets, D forms with d. Residues, ends and D or L forms follow the SMILES beside them. *: point of attachment. dPhe(4-NHCONH2) = NC(=O)Nc1ccc(C[C@@H](N)C(=O)O)cc1; Dihydroorotyl(S) = O=C1C[C@@H](C(=O)*)NC(=O)N1; dPhe(4-Cl) = N[C@H](Cc1ccc(Cl)cc1)C(=O)O; Phe(4-NH2) = Nc1ccc(C[C@H](N)C(=O)O)cc1; d2Nal = N[C@H](Cc1ccc2ccccc2c1)C(=O)O; Lys(iPr) = CC(C)NCCCC[C@H](N)C(=O)O; d3Pal = N[C@H](Cc1cccnc1)C(=O)O

Key:
Assay type in all cases: in vivo, human
[1] = tested on: patients with risk factors for cardiovascular disease; assay: Cardiovascular and metabolic risk factors in patients offered Degarelix
Text: In our patient group who were offered Degarelix, some patients had risk factors for cardiovascular disease, metabolic syndrome, lipidemia or hypoalphalipoproteinemia (low HDL). None of these patients had recently started medications prior to the GnRH antagonist that could explain the changes in blood pressure, HbA1C, fasting glucose or lipids. See Example 1 for patient information.

[2] = tested on: patient with spondyloarthritis; assay: Treatment of spondyloarthritis with Degarelix (BASDAI)
Description: • person, diagnosed with spondyloarthritis • Fulfilled the ASAS criteria for axial radiographic spondyloarthritis. Experimental Treatment • October 2014 received first dose of Degarelix 240 mg sc. • Received Degarelix 80 mg sc every two weeks thereafter. Assessment of Response Disease activity in ankylosing spondylitis/spondyloarthritis is measured by the BASDAI (Bath Ankylosing Spondylitis Disease Activity Index^1), has been extensively validated in clinical trials^2-3, and is one of the most commonly used outcome measures in clinical trials. This is a composite index that evaluates fatigue, axial and peripheral pain, stiffness and enthesopathy. Their BASDAI was at 3.8 at baseline. In October 2014 they received their first dose of Degarelix 240 mg sc. By 2 weeks, their BASDAI had reduced to 2.9, and by 8 weeks it had reduced to 1.3, remission. At 4 months, their BASDAI continues to be low at 1.5. • Response to therapy in clinical practice is defined as improvement of 2 units or 50% on a 0-10 scale of the BASDAI, and expert opinion that the treatment should be continued. Their reduction by 4 moths was 2.3 we shall continue treatment.

[3] = tested on: patient with seropositive rheumatoid arthritis; assay: Degarelix with and without Methotrexate in rheumatoid arthritis; conditions: RA patient
Description: • person with seropositive rheumatoid arthritis with disease duration of 16 years • Fulfilled ACR 2010 classification criteria for rheumatoid arthritis Experimental Treatment and Assessment of Response • Previously failed 3 biologics (Etanercept, Actemra, and Rituximab). Last tried Rituximab November 2013, but increasing disease activity and blood tests (CRP and ESR) during the months thereafter until start of Degarelix 16 Jun. 2014. Concomitantly used stable Methotrexate 10 mg weekly since 1999. • Started Degarelix 240 mg inductions dose 16 Jun. 2014, with 80 mg every 2 weeks thereafter. • Disease activity reduced and they achieved an ACR60 response by 29 Sep. 2014 under the introduction of Degarelix and stable concomitant Methotrexate and Prednisolone. • 3 Oct. 2014 the patient's pulmonary physician stopped Methotrexate treatment due to pleural thickening, and CT imaging supporting lung fibrosis which was suspected to be due to Methotrexate. The patient had dyspnea which resolved once Methotrexate was stopped. • By 21 Nov. 2014, the patients disease activity score had increased from 5.1 (29 Sep. 14) to 5.7 (21 Nov. 2014), due to the discontinuation of Methotrexate.

CC(=O)N[C@H](Cc1ccc2ccccc2c1)C(=O)N[C@H](Cc1ccc(Cl)cc1)C(=O)N[C@H](Cc1cccnc1)C(=O)N[C@@H](CO)C(=O)N[C@@H](Cc1ccc(NC(=O)[C@@H]2CC(=O)NC(=O)N2)cc1)C(=O)N[C@H](Cc1ccc(NC(N)=O)cc1)C(=O)N[C@@H](CC(C)C)C(=O)N[C@@H](CCCCNC(C)C)C(=O)N1CCC[C@H]1C(=O)N[C@H](C)C(N)=O [Degarelix] (Ac-[d2Nal][dPhe(4-Cl)][d3Pal]S[Phe(4-NH2)](Dihydroorotyl(S))[dPhe(4-NHCONH2)]L[Lys(iPr)]P[dA]-NH2)
fasting glucose ([1]; Patient 1, October 2014): 6.3 mmol/L | fasting glucose ([1]; Patient 1, September 2014): 6.6 mmol/L | metabolic syndrome criteria ([1]; Patient 1, after degarelix treatment): no longer fulfills the criteria for metabolic syndrome | HBA1c (4.3-6.1%) ([1]; Patient 1, at 8 months): 5.7% | HBA1c (4.3-6.1%) ([1]; Patient 1, baseline): 6.4% | blood pressure ([1]; Patient 1, baseline): 151/90 | HBA1c (4.3-6.1%) ([1]; Patient 1, by 2 weeks): 6.1% | fasting glucose (4.0-6.0) ([1]; Patient 4, 3 months after starting Degarelix): 6.6 mmol/L | fasting glucose (4.0-6.0) ([1]; Patient 4, April 2014, before Degarelix): 8.9 mmol/L | fasting glucose (4.0-6.0) ([1]; Patient 4, December 2013, before Degarelix): 8.5 mmol/L | HBA1c (4.3-6.1%) ([1]; Patient 4, baseline): 6.9% | HBA1c (4.3-6.1%) ([1]; Patient 4, by 1 month): 6.6% | HBA1c (4.3-6.1%) ([1]; Patient 4, by 2 months): 6.4% | HBA1c (4.3-6.1%) ([1]; Patient 4, by 4 months): 6.2% | fasting glucose (4.0-6.0) ([1]; Patient 4, by 4 months): 6.0 mmol/L | HBA1c (4.3-6.1%) ([1]; Patient 4, by 12 months): 5.9% | HDL (1.0-2.7 mmol/L) ([1]; Patient 7, baseline September 2014): 0.68 mmol/L | HDL (1.0-2.7 mmol/L) ([1]; Patient 7, by 1 week): 0.73 mmol/L | HDL (1.0-2.7 mmol/L) ([1]; Patient 7, by 2 weeks): 0.75 mmol/L | HDL (1.0-2.7 mmol/L) ([1]; Patient 7, by 3 weeks): 1.13 mmo/L | BASDAI ([2]; at 4 months): 1.5 | BASDAI ([2]; baseline): 3.8 | BASDAI ([2]; by 2 weeks): 2.9 | BASDAI ([2]; by 8 weeks (remission)): 1.3 | disease activity score ([3]; 21 Nov. 2014, Degarelix after Methotrexate stopped 3 Oct. 2014): 5.7 | disease activity score ([3]; 29 Sep. 14, Degarelix with Methotrexate): 5.1 | ACR response ([3]; by 29 Sep. 2014, with stable concomitant Methotrexate and Prednisolone): ACR60
